Data: patent publication US20160166631A1, “NUTRACEUTICAL COMBINATION FOR PREVENTION AND TREATMENT OF TYPE 2 DIABETES” (priority 2014, published 2016)

System: Type 2 diabetes patients
Assay: Clinical trials: DiabetainC co-administered with Metformin or other anti-diabetes medications (Hb A1c, fasting blood glucose)
Format: in vivo, human
Method: Clinical trials have shown that “DiabetainC” supplements in accordance with this disclosure, when administered to Type 2 diabetes patients, lowers Hb A1c by an average of 1.7% when co-administered with Metformin, as compared with a 1.2% lowering of Hb A1c when Metformin is used by itself. This is a significant improvement. A 0.5% to 1% lowering of Hb A1c correlates with a 20% reduction in morbidity.
Clinical trials have shown an advantageous decrease in fasting blood glucose (FBG) of 72 mg/dL when co-administered with Metformin, as compared with a lowering of 48 mg/dL when Metformin is administered alone. […] These improvements are significant, as every 15 mg/dL to 40 mg/dL decrease in FBG reduces diabetes related heart diseases up to 50%.

CN(C)C(=N)N=C(N)N [Metformin]
lowering of fasting blood glucose (FBG) (Metformin administered alone): 48 mg/dL
lowering of Hb A1c (Type 2 diabetes patients, Metformin used by itself): 1.2%
